Experimental data published in ChEMBL document CHEMBL1152299, “Indazole-based liver X receptor (LXR) modulators with maintained atherosclerotic lesion reduction activity but diminished stimulation of hepatic triglyceride synthesis” (J Med Chem, 2008).

What was measured:
Retinoid X receptor = target: T1, Retinoid X receptor (Homo sapiens, UniProt P28702+P48443+P19793); test: Displacement of radiolabeled 9-cis retinoic acid from human RXR by scintillation proximity assay; assay type: protein assay
T1 sequence (P28702 whole entry): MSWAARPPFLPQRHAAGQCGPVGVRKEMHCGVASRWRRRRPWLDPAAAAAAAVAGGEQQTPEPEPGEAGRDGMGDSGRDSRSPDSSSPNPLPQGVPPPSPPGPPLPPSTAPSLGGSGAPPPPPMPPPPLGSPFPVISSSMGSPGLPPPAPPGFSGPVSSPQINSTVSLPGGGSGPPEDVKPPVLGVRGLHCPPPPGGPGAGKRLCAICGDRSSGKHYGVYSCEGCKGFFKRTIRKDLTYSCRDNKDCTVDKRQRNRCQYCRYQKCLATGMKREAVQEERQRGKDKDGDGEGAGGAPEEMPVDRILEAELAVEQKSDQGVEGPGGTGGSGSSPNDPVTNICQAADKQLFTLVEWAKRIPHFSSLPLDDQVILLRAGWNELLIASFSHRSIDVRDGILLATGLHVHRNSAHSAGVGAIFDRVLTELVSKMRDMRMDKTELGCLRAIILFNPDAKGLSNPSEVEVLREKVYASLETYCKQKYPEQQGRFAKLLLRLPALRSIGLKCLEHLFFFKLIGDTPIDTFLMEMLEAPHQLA
T1 sequence (P48443 whole entry): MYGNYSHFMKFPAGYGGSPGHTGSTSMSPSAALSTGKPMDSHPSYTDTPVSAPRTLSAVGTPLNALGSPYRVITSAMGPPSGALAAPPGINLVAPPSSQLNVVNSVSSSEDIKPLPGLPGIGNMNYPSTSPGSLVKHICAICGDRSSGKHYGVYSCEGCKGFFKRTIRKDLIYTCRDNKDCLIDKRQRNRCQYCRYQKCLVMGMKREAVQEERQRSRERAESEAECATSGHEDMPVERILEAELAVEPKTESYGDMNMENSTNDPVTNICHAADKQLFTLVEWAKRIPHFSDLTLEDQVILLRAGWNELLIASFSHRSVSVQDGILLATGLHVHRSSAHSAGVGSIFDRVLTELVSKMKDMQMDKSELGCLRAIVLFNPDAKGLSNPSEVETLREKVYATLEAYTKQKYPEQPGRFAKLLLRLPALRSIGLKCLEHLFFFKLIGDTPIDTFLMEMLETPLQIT
T1 sequence (P19793 whole entry): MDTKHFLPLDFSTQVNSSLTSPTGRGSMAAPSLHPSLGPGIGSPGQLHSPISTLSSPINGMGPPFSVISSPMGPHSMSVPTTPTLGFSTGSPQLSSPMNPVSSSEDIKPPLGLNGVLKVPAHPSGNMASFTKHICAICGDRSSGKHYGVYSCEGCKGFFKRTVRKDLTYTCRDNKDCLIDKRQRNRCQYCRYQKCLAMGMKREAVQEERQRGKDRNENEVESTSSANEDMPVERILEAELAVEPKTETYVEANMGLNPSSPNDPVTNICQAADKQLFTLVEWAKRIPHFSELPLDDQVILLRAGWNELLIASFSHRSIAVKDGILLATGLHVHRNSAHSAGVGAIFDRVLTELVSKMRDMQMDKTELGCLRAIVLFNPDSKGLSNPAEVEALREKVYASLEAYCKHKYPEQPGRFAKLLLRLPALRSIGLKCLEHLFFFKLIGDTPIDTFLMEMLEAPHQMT

[1] = target: T2, Mineralocorticoid receptor (Homo sapiens, UniProt P08235); test: Displacement of radiolabeled aldosterone from human mineralocorticoid receptor by filter paper assay
T2 sequence (P08235 whole entry): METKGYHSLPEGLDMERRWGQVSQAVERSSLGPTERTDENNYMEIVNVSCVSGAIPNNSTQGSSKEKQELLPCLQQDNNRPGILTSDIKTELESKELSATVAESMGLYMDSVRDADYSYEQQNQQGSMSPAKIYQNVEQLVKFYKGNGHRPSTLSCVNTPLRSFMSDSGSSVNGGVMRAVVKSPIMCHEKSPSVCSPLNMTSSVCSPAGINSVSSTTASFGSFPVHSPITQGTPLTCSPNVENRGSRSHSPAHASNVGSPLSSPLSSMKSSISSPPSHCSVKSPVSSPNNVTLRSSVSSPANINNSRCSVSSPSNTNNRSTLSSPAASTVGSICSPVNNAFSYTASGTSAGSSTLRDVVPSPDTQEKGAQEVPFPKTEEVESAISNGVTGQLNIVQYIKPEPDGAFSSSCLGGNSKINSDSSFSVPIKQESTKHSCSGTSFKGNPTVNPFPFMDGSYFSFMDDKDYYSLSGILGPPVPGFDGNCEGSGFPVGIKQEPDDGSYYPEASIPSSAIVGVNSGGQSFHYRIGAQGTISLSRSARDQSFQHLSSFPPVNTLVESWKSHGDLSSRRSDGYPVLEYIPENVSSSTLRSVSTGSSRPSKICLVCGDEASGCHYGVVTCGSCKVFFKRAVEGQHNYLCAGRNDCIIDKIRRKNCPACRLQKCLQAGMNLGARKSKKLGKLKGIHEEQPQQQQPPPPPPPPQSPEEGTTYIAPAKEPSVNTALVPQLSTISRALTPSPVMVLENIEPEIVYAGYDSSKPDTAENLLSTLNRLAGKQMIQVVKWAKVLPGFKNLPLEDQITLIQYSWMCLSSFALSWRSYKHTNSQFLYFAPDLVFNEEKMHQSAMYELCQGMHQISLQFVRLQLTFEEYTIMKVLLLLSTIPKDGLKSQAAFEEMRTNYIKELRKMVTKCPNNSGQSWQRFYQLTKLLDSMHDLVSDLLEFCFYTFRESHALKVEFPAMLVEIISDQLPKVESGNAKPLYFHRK

[2] = Half life in C57 mouse at 1 mg/kg, iv; assay type: ADME, organism-based; design: dose 1 mg/kg, route intravenous; conditions: in vivo
[3] = Volume of distribution at steady state in C57 mouse at 1 mg/kg, iv and 10 mg/kg, po; assay type: ADME, organism-based; conditions: in vivo, read-out: Vdss
[4] = Terminal half life in C57 mouse at 10 mg/kg, po; assay type: ADME, organism-based; design: dose 10 mg/kg, route oral; conditions: in vivo, read-out: beta t1/2 (converted)
[5] = Tmax in C57 mouse at 1 mg/kg, iv and 10 mg/kg, po; assay type: ADME, organism-based; conditions: in vivo
Mus musculus [6] = test: Decrease in total cholesterol level in LDL receptor knockout C57BL/6 mouse plasma at 15 mg/kg administered with Western diet after 8 weeks; assay type: functional; design: scale not given: the % may be the effect or the level left
Mus musculus [7] = test: Reduction in atherosclerotic lesion size in LDL receptor knockout C57BL/6 mouse thoracic aorta at 15 mg/kg administered with Western diet after 8 weeks by oil Red-O staining; assay type: functional; design: scale not given: the % may be the effect or the level left

IC50 (Retinoid X receptor) [µM]	IC50 [1] [µM]	half-life [2] [h]	Vd [3] [L/kg]	half-life [4] [h]	Tmax [5] [h]	Compound	Activity (Mus musculus [6]) [%]	Activity (Mus musculus [7]) [%]
> 10						Fc1ccc(-c2c3cccc(C(F)(F)F)c3nn2Cc2ccc(F)cc2Cl)cc1 [LXR-623]		
	> 10	7.9	30.3	5.8	0.5	Fc1ccc(-c2c3cccc(C(F)(F)F)c3nn2Cc2ccccc2F)cc1	10	28
